Results: ChEMBL document CHEMBL1201862, “PubChem BioAssay data set” (2004)
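Following 48 hours of exposure in 96-well plates, responses at five concentrations were used to interpolate endpoints linearly. GI50 is the concentration that inhibits growth by half.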 Calls of active or inactive are those of the source. Cut-off read from the data, not from the text of the source: active = GI50 up to about 1.1 µM and inactive = higher.

What was measured:
Assay in all cases: inhibition of tumour cell growth, NCI panel, 48 h
OVCAR-5 = test system: OVCAR-5
U-251 = test system: U-251
CCRF-CEM = test system: CCRF-CEM
SW-620 = test system: SW-620
NCI/ADR-RES = test system: NCI/ADR-RES
COLO 205 = test system: COLO 205
SNB-19 = test system: SNB-19
DU-145 = test system: DU-145
SF-539 = test system: SF-539
MDA-N = test system: MDA-N
T47D = test system: T47D
PC-3 = test system: PC-3
SK-MEL-5 = test system: SK-MEL-5
MDA-MB-435 = test system: MDA-MB-435
KM12 = test system: KM12
HOP-92 = test system: HOP-92
HT-29 = test system: HT-29
K562 = test system: K562

| Compound | GI50 (OVCAR-5) | GI50 (U-251) | GI50 (CCRF-CEM) | GI50 (SW-620) | GI50 (NCI/ADR-RES) | GI50 (COLO 205) | GI50 (SNB-19) | GI50 (DU-145) | GI50 (SF-539) | GI50 (MDA-N) | GI50 (T47D) | GI50 (PC-3) | GI50 (SK-MEL-5) | GI50 (MDA-MB-435) | GI50 (KM12) | GI50 (HOP-92) | GI50 (HT-29) | GI50 (K562) |
| --- | --- | --- | --- | --- | --- | --- | --- | --- | --- | --- | --- | --- | --- | --- | --- | --- | --- | --- |
| c1ccc(C2=NCCc3cc4c(cc32)OCO4)cc1 | > 100 µM (inactive) | > 100 µM (inactive) | > 10 µM (inactive) | > 100 µM (inactive) | > 100 µM (inactive) | > 100 µM (inactive) | > 100 µM (inactive) | > 100 µM (inactive) | > 100 µM (inactive) | > 100 µM (inactive) | > 100 µM (inactive) | > 100 µM (inactive) | > 100 µM (inactive) | > 100 µM (inactive) | > 100 µM (inactive) |  |  |  |
| C=CC(Br)(CBr)CCC1OC1(C)C (centres undefined) | 18.9 µM (inactive) | 17 µM (inactive) | 29.9 µM (inactive) | 13.1 µM (inactive) | 23.5 µM (inactive) | 18.7 µM (inactive) | 17.3 µM (inactive) | 25.3 µM (inactive) | 19.5 µM (inactive) | 11.3 µM (inactive) |  | 16.5 µM (inactive) | 14.2 µM (inactive) | 17.3 µM (inactive) | 17.1 µM (inactive) | 14.4 µM (inactive) | 17.4 µM (inactive) | 37.9 µM (inactive) |
| CC(C)=CCC/C(C)=C/CC/C(C)=C/[C@@H]1[C@@H](CO)[C@]1(C)CC/C=C(\C)CCC=C(C)C | 49.4 µM (inactive) | 53.7 µM (inactive) | 0.251 µM (active) | 22.6 µM (inactive) | 22.4 µM (inactive) | 63.1 µM (inactive) | > 100 µM (inactive) | 39.6 µM (inactive) | 22 µM (inactive) |  | 41.3 µM (inactive) | 23.9 µM (inactive) | 46 µM (inactive) | 85.9 µM (inactive) | 35.7 µM (inactive) | 16.6 µM (inactive) | 42.8 µM (inactive) | 31.3 µM (inactive) |
| CC12c3c4cc(Br)cc3Oc3cc(Br)cc(c31)Oc1cc(Br)cc(c12)O4 | 55.5 µM (inactive) | 62.1 µM (inactive) |  | 24.6 µM (inactive) | 19.8 µM (inactive) | 25.6 µM (inactive) | > 100 µM (inactive) | 16.4 µM (inactive) | 34.6 µM (inactive) | 41.1 µM (inactive) | 28.1 µM (inactive) | 21 µM (inactive) | 27.6 µM (inactive) | 26.2 µM (inactive) | 58.5 µM (inactive) |  | 76.9 µM (inactive) | 44.4 µM (inactive) |
| COc1ccc(Cc2c(N)[nH]c(=O)[nH]c2=O)cc1 | > 100 µM (inactive) | > 100 µM (inactive) |  | > 100 µM (inactive) | > 100 µM (inactive) | > 100 µM (inactive) | > 100 µM (inactive) |  | > 100 µM (inactive) | > 100 µM (inactive) | > 100 µM (inactive) | > 100 µM (inactive) | > 100 µM (inactive) | > 100 µM (inactive) | > 100 µM (inactive) | 33.3 µM (inactive) | > 100 µM (inactive) | > 100 µM (inactive) |
| O=C(O)C(O)c1ccc(F)cc1 (centres undefined) | > 100 µM (inactive) | > 100 µM (inactive) |  | > 100 µM (inactive) | > 100 µM (inactive) |  | > 100 µM (inactive) | > 100 µM (inactive) |  | > 100 µM (inactive) | > 100 µM (inactive) | > 100 µM (inactive) |  | > 100 µM (inactive) | > 100 µM (inactive) | > 100 µM (inactive) | > 100 µM (inactive) | > 100 µM (inactive) |
| COc1ccc(/C=C2\CCCc3ccccc3C2=O)cc1 | 0.605 µM (active) | 0.508 µM (active) | 0.578 µM (active) | 0.378 µM (active) | 0.0416 µM (active) | 0.0904 µM (active) | 0.36 µM (active) | 0.185 µM (active) | 0.287 µM (active) | 0.0132 µM (active) |  | 0.321 µM (active) | 0.102 µM (active) | 0.0154 µM (active) | 0.158 µM (active) | 0.893 µM (active) | 0.0849 µM (active) | 0.33 µM (active) |
| COc1ccc(C(=CCC(C)C2CCC3[C@@H]4C(OC(C)=O)CC5CC(OC(C)=O)CC[C@]5(C)C4CC(OC(C)=O)[C@]23C)c2ccc(OC)cc2)cc1 (some centres undefined) | 72.8 µM (inactive) | > 100 µM (inactive) | 27.1 µM (inactive) | 91.4 µM (inactive) | 80.7 µM (inactive) | > 100 µM (inactive) | > 100 µM (inactive) |  | 97.7 µM (inactive) |  | 41 µM (inactive) | 19.5 µM (inactive) | > 100 µM (inactive) | 77.1 µM (inactive) | 76.6 µM (inactive) |  | > 100 µM (inactive) | 67.8 µM (inactive) |
| CC1=NN(C(=O)c2ccccc2O)C(=O)/C1=C/c1cccc(O)c1 | 5.56 µM (inactive) | 0.277 µM (active) | 2.88 µM (inactive) | 3.49 µM (inactive) | 6.21 µM (inactive) | 32.8 µM (inactive) | 0.543 µM (active) | 0.536 µM (active) | 0.171 µM (active) | 0.603 µM (active) | 0.472 µM (active) | 3.19 µM (inactive) | 3.2 µM (inactive) |  | 0.389 µM (active) | 0.462 µM (active) | 39.2 µM (inactive) | 0.178 µM (active) |
